Here are results for 15 compounds from patent US20240109885A1, “2,3-DIHYDRO-1H-PYRROLO[3,2-B]PYRIDINE DERIVATIVE, PREPARATION METHOD THEREFOR, AND APPLICATION THEREOF” (Abbisko Therapeutics Co., Ltd, priority 2020, published 2024).

Format in all cases: cell-based
Test [1] has as its system A431 (EGFR-WT). The experiment in a line: Cell proliferation assay (CellTiter-Glo), A431 cells. Particulars: Homo sapiens, A-431, 72 hrs, CTG assay, * = average of multiple measurements. As to the method: (§1) I. Cell proliferation assay (i) Reagents and consumables • Fetal bovine serum (FBS) (GBICO, Cat #10099-141); • CellTiter-Glo® Luminescent Cell Viability Assay Kit (Promega, Cat #G7572); • Black transparent flat-bottomed 96-well plate (Corning®, Cat #3603).
(§2) • SpectraMax Multi-Label Microplate Detector MD, 2104-0010A; • CO2 incubator, Thermo Scientific 3100 Series; • Biosafety cabinet, Thermo Scientific, 1300 Series type A2; • Inverted microscope, Olympus, CKX41SF; • Siemens refrigerator KK25E76TI. (iii) Cell lines and culture conditions
(§3) (iv) Experimental procedures 1. Cell culture and seeding: • (1) Cells in the logarithmic growth phase were harvested, and counted using a platelet counter. Cell viability was detected by the trypan blue exclusion assay to ensure that the cell viability was above 90%. • (2) The cell concentration was adjusted to achieve the final density; and 90 μL of the cell suspension was added to the 96-well plate. • (3) The cells were incubated in the 96-well plate overnight at 37° C. in the presence of 5% CO2 with 95% humidity. 2. TO benchmark data: • (1) 10 μL of PBS was added to each well of the TO flat plate containing the cells. • (2) The CTG reagent was thawed, and the cell plate was equilibrated to room temperature for 30 min. • (3) An equal volume of CTG solution was added to each well. • (4) The cells were shaken for 5 min on an orbital shaker for lysis. • (5) The cell plate was left at room temperature for 20 min to stabilize luminescent signals. • (6) The values of TO luminescent signals were read. 3. Compound dilution and addition • (1) According to the compound information table, a corresponding volume of DMSO was added to the corresponding compound powder to prepare a 10 mM stock solution. • (2) Compound solutions diluted at 1000 fold and 3.16 fold were prepared. • (3) The compound solution diluted at 1000 fold was diluted at 100 fold with PBS, to prepare the compound solutions at 10 fold in 9 concentrations, with the maximum concentration of […]; and the compound solution was diluted at 3.16 fold. 10 μL of medicament solution was added to each well of the seeded 96-well plate. Three replicate wells were provided for each concentration of the compound, and the final concentration of DMSO was 0.1%. • (4) Cells were placed in the 96-well plate containing the medicament and subsequently cultured for 72 hrs at 37° C. in the presence of 5% CO2 with 95% humidity, and then, CTG assay was conducted. 4. Reading of luminescent signals • (1) The CTG reagent was thawed, and the cell plate was equilibrated to room temperature for 30 min. • (2) An equal volume of CTG solution was added to each well. • (3) The cells were shaken for 5 min on an orbital shaker for lysis.
(§4) (4) The cell plate was left at room temperature for 20 min to stabilize the luminescent signals. • (5) Luminescent values were read. Data processing
(§5) The data were analyzed using software GraphPad Prism 7.0, and fitted by the nonlinear S-curve regression to obtain a dose-effect curve, based on which the IC50 value (unit: nM) was calculated, with the specific test results shown in Table 1.
(§6) Cell viability (%)=(Lum test medicament-Lum culture medium control)/(Lum cell control-Lum culture medium control)×100%.

Test [2] has as its target Ba/F3 EGFR-V769_D770insASV (Homo sapiens, UniProt P00533, DUP767-769, cells depend on it). Description: Cell proliferation assay (CellTiter-Glo), Ba/F3 EGFR-V769_D770insASV cells. Particulars: 72 hrs, CTG assay, * = average of multiple measurements, read-out: Ba/F3 EGFR-V769_D770insASV (nM), IC50 of cell proliferation. As to the method: as §1, §2, §3, §4, §5, §6
Test [3] deals with Ba/F3 EGFR-D770-N771ins_SVD (Homo sapiens, UniProt P00533, DUP768-770, cells depend on it). Description: Cell proliferation assay (CellTiter-Glo), Ba/F3 EGFR-D770-N771ins_SVD cells. Particulars: 72 hrs, CTG assay, * = average of multiple measurements, read-out: Ba/F3 EGFR-D770-N771ins_SVD (nM), IC50 of cell proliferation. The protocol: as §1, §2, §3, §4, §5, §6
Ba/F3 EGFR-D770-N771ins_SVD, sequence (P00533 with tags, fused parts or gaps DUP768-770): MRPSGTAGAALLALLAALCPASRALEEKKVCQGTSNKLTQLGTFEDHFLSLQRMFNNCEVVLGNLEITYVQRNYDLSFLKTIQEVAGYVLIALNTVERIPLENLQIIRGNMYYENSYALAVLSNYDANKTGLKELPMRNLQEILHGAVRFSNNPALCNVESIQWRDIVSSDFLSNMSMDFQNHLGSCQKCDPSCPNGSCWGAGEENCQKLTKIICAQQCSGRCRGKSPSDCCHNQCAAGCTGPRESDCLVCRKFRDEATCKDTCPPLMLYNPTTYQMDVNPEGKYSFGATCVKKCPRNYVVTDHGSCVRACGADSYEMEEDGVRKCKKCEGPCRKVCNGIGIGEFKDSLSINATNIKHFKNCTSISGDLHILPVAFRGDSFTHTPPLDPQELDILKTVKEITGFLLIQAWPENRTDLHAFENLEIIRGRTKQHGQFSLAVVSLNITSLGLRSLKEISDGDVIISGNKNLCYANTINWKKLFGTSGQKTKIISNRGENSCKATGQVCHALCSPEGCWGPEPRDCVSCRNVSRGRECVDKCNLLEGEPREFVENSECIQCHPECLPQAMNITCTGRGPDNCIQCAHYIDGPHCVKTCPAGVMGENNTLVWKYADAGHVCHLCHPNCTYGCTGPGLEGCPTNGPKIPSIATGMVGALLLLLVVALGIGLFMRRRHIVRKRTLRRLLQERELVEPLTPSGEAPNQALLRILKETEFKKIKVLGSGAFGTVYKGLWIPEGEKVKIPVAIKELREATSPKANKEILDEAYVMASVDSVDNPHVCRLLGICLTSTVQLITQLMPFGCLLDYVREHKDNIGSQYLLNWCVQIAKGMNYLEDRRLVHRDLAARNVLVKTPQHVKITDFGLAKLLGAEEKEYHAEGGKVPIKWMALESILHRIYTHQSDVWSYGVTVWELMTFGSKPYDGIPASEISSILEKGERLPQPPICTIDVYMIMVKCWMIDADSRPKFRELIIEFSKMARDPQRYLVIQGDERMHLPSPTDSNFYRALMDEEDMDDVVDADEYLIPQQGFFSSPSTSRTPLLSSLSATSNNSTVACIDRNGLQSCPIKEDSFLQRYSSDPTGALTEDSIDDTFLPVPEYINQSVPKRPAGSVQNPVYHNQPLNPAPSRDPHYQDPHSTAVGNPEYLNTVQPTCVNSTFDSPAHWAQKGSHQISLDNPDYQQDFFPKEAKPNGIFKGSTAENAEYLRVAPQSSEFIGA
For orientation: Cellular ATP, detected with luciferase, serves as a proxy for viable cell number.

Ba/F3 EGFR-V769_D770insASV, sequence (P00533 with tags, fused parts or gaps DUP767-769): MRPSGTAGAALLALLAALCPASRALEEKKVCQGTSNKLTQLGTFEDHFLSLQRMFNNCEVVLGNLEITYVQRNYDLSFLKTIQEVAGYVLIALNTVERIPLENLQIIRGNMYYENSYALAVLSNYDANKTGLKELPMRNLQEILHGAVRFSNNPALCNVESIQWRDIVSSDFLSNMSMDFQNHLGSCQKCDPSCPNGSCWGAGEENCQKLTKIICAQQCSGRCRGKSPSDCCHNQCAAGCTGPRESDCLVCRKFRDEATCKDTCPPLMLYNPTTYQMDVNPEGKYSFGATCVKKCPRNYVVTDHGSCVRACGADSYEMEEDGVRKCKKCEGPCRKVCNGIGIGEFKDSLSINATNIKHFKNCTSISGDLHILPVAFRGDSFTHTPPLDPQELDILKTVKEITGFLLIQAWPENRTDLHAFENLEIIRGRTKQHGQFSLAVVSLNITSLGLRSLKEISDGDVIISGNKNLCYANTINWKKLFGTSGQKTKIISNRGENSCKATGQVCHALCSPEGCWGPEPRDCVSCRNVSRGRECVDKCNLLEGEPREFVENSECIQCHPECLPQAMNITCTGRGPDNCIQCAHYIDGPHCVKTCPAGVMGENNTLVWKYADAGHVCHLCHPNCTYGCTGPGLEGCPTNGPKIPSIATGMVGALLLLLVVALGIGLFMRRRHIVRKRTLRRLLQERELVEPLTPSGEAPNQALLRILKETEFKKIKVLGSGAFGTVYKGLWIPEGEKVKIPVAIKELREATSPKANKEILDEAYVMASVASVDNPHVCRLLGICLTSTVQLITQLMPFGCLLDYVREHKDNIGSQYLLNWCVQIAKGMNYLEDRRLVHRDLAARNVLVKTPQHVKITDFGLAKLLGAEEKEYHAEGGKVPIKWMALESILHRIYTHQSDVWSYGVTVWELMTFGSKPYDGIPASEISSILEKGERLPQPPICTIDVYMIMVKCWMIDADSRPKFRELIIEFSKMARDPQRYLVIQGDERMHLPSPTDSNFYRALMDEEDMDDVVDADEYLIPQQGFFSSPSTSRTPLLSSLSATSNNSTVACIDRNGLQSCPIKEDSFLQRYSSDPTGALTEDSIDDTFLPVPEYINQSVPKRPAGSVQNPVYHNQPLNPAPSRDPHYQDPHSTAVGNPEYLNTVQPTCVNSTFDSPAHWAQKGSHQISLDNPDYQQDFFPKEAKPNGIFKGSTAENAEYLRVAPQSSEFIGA

What is called IC50 is the concentration at which inhibition is half-maximal. A lower IC50 goes with inhibition by little substance. `C=CC(=O)Nc1cc(Nc2cc(N3CC(C)(C)c4ncccc43)ccn2)c(OC)cc1N(C)CCN(C)C` [Example 1, N-(5-((4-(3,3-dimethyl-2,3-dihydro-1H-pyrrolo[3,2-b]pyridin-1-yl)pyridin-2-yl)amino)-2-((2-(dimethylamino)ethyl)(methyl)amino)-4-methoxyphenyl)acrylamide] registered an IC50 in test [1] of 898 nM. The GI50 in test [2] was 69.8 nM; in test [3], 60.2 nM.

In turn, `C=CC(=O)Nc1cc(Nc2ncnc(N3CC4(CCC4)c4ncccc43)n2)c(OC)cc1N(C)CCN(C)C` [Example 55, N-(2-((2-(dimethylamino)ethyl) (methyl)amino)-4-methoxy-5-((4-(spiro[cyclobutane-1,3′-pyrrolo[3,2-b]pyridin]-1′(2′H)-yl)-1,3,5-triazin-2-yl)amino)phenyl)acrylamide] gave a concentration for half-maximal inhibition (IC50) in test [1] of 312 nM. Moreover, the GI50 in test [2] is 47 nM; in test [3], 23.8 nM.

On to `C=CC(=O)Nc1cc(Nc2ncnc(N3CC4(CCCC4)c4nc(C)ccc43)n2)c(OC)cc1N(C)CCN(C)C` [Example 29, N-(2-((2-(dimethylamino)ethyl) (methyl)amino)-4-methoxy-5-((4-(5′-methylspiro[cyclopentane-1,3′-pyrrolo[3,2-b]pyridin]-1′(2′H)-yl)-1,3,5-triazin-2-yl)amino)phenyl) acrylamide], for which half-maximal inhibition in test [1] (IC50) required 22.1 nM. The GI50 amounted to 45.5 nM in test [2] and 20 nM in test [3].

Regarding `C=CC(=O)Nc1cc(Nc2ncnc(N3CC(C)(C)c4nc(C)c(C)cc43)n2)c(OCC)cc1N(C)CCN(C)C` [Example 30, N-(2-((2-(dimethylamino)ethyl) (methyl)amino)-4-ethoxy-5-((4-(3,3,5,6-tetramethyl-2,3-dihydro-1H-pyrrolo[3,2-b]pyridin-1-yl)-1,3,5-triazin-2-yl)amino)phenyl)acrylamide], in test [1], the IC50 turned out to be 42.2 nM. The values for the GI50 in test [2] and in test [3] were 65.3 nM and 38.1 nM, respectively.

Take `C#Cc1ccc2c(n1)C(C)(C)CN2c1ccnc(Nc2cc(NC(=O)C=C)c(N(C)CCN(C)C)cc2OC)n1` [Example 54, N-(2-((2-(dimethylamino)ethyl)(methyl)amino)-5-((4-(5-ethynyl-3,3-dimethyl-2,3-dihydro-1H-pyrrolo[3,2-b]pyridin-1-yl)pyrimidin-2-yl)amino)-4-methoxyphenyl)acrylamide]: in test [1], the IC50 is 72.9 nM. Also, the GI50 in test [2] was determined as 30.6 nM; in test [3] it was 17.8 nM.

`C=CC(=O)Nc1cc(Nc2nccc(N3CC4(CCCCC4)c4nc(C)ccc43)n2)c(OC)cc1N(C)CCN(C)C` [Example 32, N-(2-((2-(dimethylamino)ethyl) (methyl)amino)-4-methoxy-5-((4-(5′-methylspiro[cyclohexane-1,3′-pyrrolo[3,2-b]pyridin]-1′(2′H)-yl)pyrimidin-2-yl)amino)phenyl)acrylamide] returned an IC50 in test [1] of 53.7 nM. Moreover, the GI50 in test [2] was found to be 95.8 nM; in test [3] it was 35.7 nM.

In test [1], `C=CC(=O)Nc1cc(Nc2ncnc(N3CC(C)(C)c4nc(C)c(C)cc43)n2)c(OC(C)C)cc1N(C)CCN(C)C` [Example 44, N-(2-((2-(dimethylamino)ethyl) (methyl)amino)-4-isopropoxy-5-((4-(3,3,5,6-tetramethyl-2,3-dihydro-1H-pyrrolo[3,2-b]pyridin-1-yl)-1,3,5-triazin-2-yl)amino)phenyl)acrylamide] showed an IC50 of 108 nM. Also, the GI50 in test [2] was 35 nM; in test [3] it was 20.1 nM.

`C=CC(=O)Nc1cc(Nc2nccc(N3CC(C)(C)c4nc(C5CC5)ccc43)n2)c(OC(F)F)cc1N(C)CCN(C)C` [Example 46, N-(5-((4-(5-cyclopropyl-3,3-dimethyl-2,3-dihydro-1H-pyrrolo[3,2-b]pyridin-1-yl)pyrimidin-2-yl)amino)-4-(difluoromethoxy)-2-((2-(dimethylamino)ethyl)(methyl)amino)phenyl)acrylamide] came in with an IC50 in test [1] of 402 nM. The GI50 amounted to 21.6 nM in test [2] and 22.6 nM in test [3].

With `C=CC(=O)Nc1cc(Nc2nccc(N3CC(C)(C)c4nc(C5CC5)ccc43)n2)c(OC)cc1N(C)CCN(C)C` [Example 17, N-(5-((4-(5-cyclopropyl-3,3-dimethyl-2,3-dihydro-1H-pyrrolo[3,2-b]pyridin-1-yl)pyrimidin-2-yl)amino)-2-((2-(dimethylamino)ethyl) (methyl)amino)-4-methoxyphenyl) acrylamide], the IC50 in test [1] is 125 nM. Also, the GI50 in test [2] came to 54.6 nM; in test [3], 33.9 nM.

For `C=CC(=O)Nc1cc(Nc2ncnc(N3CC(C)(C)c4nc(Cl)c(C)cc43)n2)c(OC)cc1N(C)CCN(C)C` [Example 34, N-(5-((4-(5-chloro-3,3,6-trimethyl-2,3-dihydro-1H-pyrrolo[3,2-b]pyridin-1-yl)-1,3,5-triazin-2-yl)amino)-2-((2-(dimethylamino)ethyl) (methyl)amino)-4-methoxyphenyl) acrylamide], half-maximal inhibition in test [1] (IC50) required 47.7 nM. Moreover, the GI50 stood at 68.4 nM in test [2] and 22.5 nM in test [3].

In the case of `C=CC(=O)Nc1cc(Nc2nccc(N3CC(C)(C)c4nc(C)ccc43)n2)c(OCC)cc1N(C)CCN(C)C` [Example 24, N-(2-((2-(dimethylamino)ethyl) (methyl)amino)-4-ethoxy-5-((4-(3,3,5-trimethyl-2,3-dihydro-1H-pyrrolo[3,2-b]pyridin-1-yl)pyrimidin-2-yl)amino)phenyl)acrylamide], the IC50 in test [1] was determined as 850 nM. For the same compound, the GI50 in test [2] is 44.3 nM; in test [3], 25.4 nM.

Turning to `C=CC(=O)Nc1cc(Nc2cc(N3CC(C)(C)c4nc(C)ccc43)ncn2)c(OC)cc1N1CCC[C@@H]1CN(C)C` [Example 13, (R)-N-(5-((6-(3,3,5-trimethyl-2,3-dihydro-1H-pyrrolo[3,2-b]pyridin-1-yl)pyrimidin-4-yl)amino)-2-(2-((dimethylamino)methyl)pyrrolidin-1-yl)-4-methoxyphenyl)acrylamide], the IC50 in test [1] was found to be 101 nM. Moreover, the figures for the GI50 in test [2] and in test [3] were 87.4 nM and 42.1 nM, respectively.

For the compound `C=CC(=O)Nc1cc(Nc2ncnc(N3CC(C)(C)c4ncc(C)cc43)n2)c(OC)cc1N(C)CCN(C)C` [Example 16, N-(2-((2-(dimethylamino)ethyl) (methyl)amino)-4-methoxy-5-((4-(3,3,6-trimethyl-2,3-dihydro-1H-pyrrolo[3,2-b]pyridin-1-yl)-1,3,5-triazin-2-yl)amino)phenyl)acrylamide], in test [1], the IC50 was determined as 47.7 nM. For the same compound, the GI50 in test [2] was 27.7 nM; in test [3] it was 9.5 nM.

In the case of `C=CC(=O)Nc1cc(Nc2nccc(N3CC(C)(C)c4nc(C)c(C)cc43)n2)c(OC)cc1N(C)CCN(C)C` [Example 21, N-(2-((2-(dimethylamino)ethyl) (methyl)amino)-4-methoxy-5-((4-(3,3,5,6-tetramethyl-2,3-dihydro-1H-pyrrolo[3,2-b]pyridin-1-yl)pyrimidin-2-yl)amino)phenyl)acrylamide], in test [1], half-maximal inhibition (IC50) required 80.4 nM. The GI50 in test [2] came out at 19 nM; in test [3], 3.8 nM.

`C=CC(=O)Nc1cc(Nc2cc(N3CC(C)(C)c4ncccc43)ccn2)c(OC)cc1N1CCC[C@@H]1CN(C)C` [Example 4, (R)-N-(5-((4-(3,3-dimethyl-2,3-dihydro-1H-pyrrolo[3,2-b]pyridin-1-yl)pyridin-2-yl)amino)-2-(2-((dimethylamino)methyl)pyrrolidin-1-yl)-4-methoxyphenyl)acrylamide] registered an IC50 in test [1] of 964 nM. Besides, the values for the GI50 in test [2] and in test [3] were 83.1 nM and 47.2 nM, respectively.
